{
  "source": "patent US9504685B2",
  "about": "“Method for treating a pulmonary hypertension condition” (Gilead Sciences, Inc., priority 2006, dated 2016)",
  "tested_on": "subjects with PAH",
  "test": "Example 1 (ARIES-2) placebo-controlled Phase III trial, efficacy",
  "type": "in vivo, human",
  "procedure": "The primary objective of this study was to determine the effect of ambrisentan on exercise capacity in subjects with PAH. The secondary objectives of this study were to evaluate effects of ambrisentan on other clinical measures of PAH, as well as safety and tolerability of the study drug.\nStudy drug was provided in round, biconvex, oral tablets that were identical in appearance. Three strengths of active study drug, containing 1 mg, 2.5 mg or 5 mg of ambrisentan, were used in this study. All study drug was packaged in blister cards. Subjects were instructed to take study drug once daily (q.d.) by mouth (p.o.) in the morning, with or without food.\nThe maximum study duration was up to 14 weeks from the time of initial screening procedures to the final study visit (Week 12). Screening procedures were performed a maximum of 2 weeks prior to the first dose of study drug. The maximum duration of study drug treatment was 12 weeks.\nMen and women, 18 years of age or older, with idiopathic PAH, PAH associated with connective tissue disease (CTD), e.g., mixed CTD, CREST syndrome, systemic sclerosis (scleroderma), overlap syndrome or systemic lupus erythematosus, or PAH associated with anorexigen use or HIV infection were enrolled in this study. Subjects were to have a documented mean PAP≧25 mmHg, PVR>3 mmHg/L/min, and PCWP or LVEDP<15 mmHg. Subjects must have been able to walk a distance of at least 150 m but no more than 450 m during 2 consecutive 6MWTs to be eligible for inclusion in the study.\nAfter a 2 week screening period, eligible subjects were stratified based on the underlying etiology of PAH (idiopathic or non-idiopathic) and were randomized to 1 of 3 treatment groups (placebo, 2.5 mg or 5 mg ambrisentan) in a ratio of 1:1:1. One blinded dose reduction was permitted during the 12-week treatment period in the event of study drug intolerance (e.g., 5 mg to 2.5 mg, 2.5 mg to 1 mg, placebo to placebo). Subjects received a daily dose of 1 mg ambrisentan only if they reduced from the 2.5 mg dose group. Subjects were assessed for efficacy and safety at monthly intervals.\nTherefore, after a minimum treatment period of 4 weeks, subjects who met 2 or more of the following predefined early escape criteria may have been removed from the study: • (a) a decrease from baseline of at least 20% in 6MWD; • (b) an increase of 1 or more WHO functional class; • (c) worsening right ventricular failure (e.g., as indicated by increased jugular venous pressure, new or worsening hepatomegaly, ascites or peripheral edema); • (d) rapidly progressing cardiogenic, hepatic or renal failure; and/or • (e) refractory systolic hypotension (systolic blood pressure <85 mmHg).\nThe primary efficacy endpoint was change from baseline in 6MWD evaluated after 12 weeks of treatment compared to placebo.\nThe secondary efficacy endpoints included: • (a) time to clinical worsening of PAH, as defined by the time from randomization to the first occurrence of death, lung transplantation, hospitalization for PAH, atrial septostomy, study discontinuation due to addition of other PAH therapeutic agents, or study discontinuation due to 2 or more early escape criteria; • (b) change from baseline measured after 12 weeks of treatment compared to placebo in: • (i) WHO functional class; • (ii) SF-36® health survey physical functioning scale; • (iii) BDI immediately following exercise; and/or • (iv) an assessment of the safety and tolerability of the study drug; and • (c) change from baseline measured after 12 weeks of treatment compared to placebo in plasma levels of ET-1, cTnT and BNP. Safety Assessments\nFor the ITT population, subjects were considered as belonging to their randomized treatment group, regardless of the actual treatment received.\nThe primary efficacy endpoint was the change from baseline in 6MWD evaluated after 12 weeks of treatment compared to placebo, where the last observation was carried forward. […]",
  "key": {"[1]": {"conditions": "5 mg once daily, baseline to Week 12"}, "[2]": {"conditions": "combined 2.5 mg and 5 mg groups, 12 weeks"}, "[3]": {"conditions": "combined 2.5 mg and 5 mg groups, ITT population"}, "[4]": {"conditions": "combined 2.5 mg and 5 mg groups, baseline to Week 12"}},
  "data": [
    {"smiles": "COC(c1ccccc1)(c1ccccc1)[C@H](Oc1nc(C)cc(C)n1)C(=O)O", "note": "[ambrisentan]", "values": [
      {"measurement": "Change in SF-36 Role-physical, mean (SD)", "setting": "[1]", "value": "+7.61 (10.41)"},
      {"measurement": "Change in SF-36 Social functioning, mean (SD)", "setting": "[1]", "value": "+4.85 (11.89)"},
      {"measurement": "Change in SF-36 Vitality, mean (SD)", "setting": "[1]", "value": "+5.21 (8.79)"},
      {"measurement": "Change in WHO functional class: +1 class", "setting": "[1]", "value": "2 (3.2) subjects (% of ITT population)"},
      {"measurement": "Change in WHO functional class: +2 classes", "setting": "[1]", "value": "0 (0.0) subjects (% of ITT population)"},
      {"measurement": "Change in WHO functional class: no change", "setting": "[1]", "value": "52 (82.5) subjects (% of ITT population)"},
      {"measurement": "Change in WHO functional class: −1 class", "setting": "[1]", "value": "8 (12.7) subjects (% of ITT population)"},
      {"measurement": "Change in WHO functional class: −2 classes", "setting": "[1]", "value": "1 (1.6) subjects (% of ITT population)"},
      {"measurement": "placebo-adjusted 6MWD change from baseline at Week 12", "setting": "South American subgroup, 2.5 mg once daily", "value": "+50.5 m"},
      {"measurement": "placebo-adjusted 6MWD change from baseline at Week 12", "setting": "South American subgroup, 5 mg once daily", "value": "+79.5 m"},
      {"measurement": "placebo-adjusted 6MWD change from baseline at Week 12", "setting": "WHO class I/II subgroup, 2.5 mg once daily", "value": "+44.1 m"},
      {"measurement": "placebo-adjusted 6MWD change from baseline at Week 12", "setting": "WHO class I/II subgroup, 5 mg once daily", "value": "+67.7 m"},
      {"measurement": "placebo-adjusted 6MWD change from baseline at Week 12", "setting": "WHO class III/IV subgroup, 2.5 mg once daily", "value": "+17.6 m"},
      {"measurement": "placebo-adjusted 6MWD change from baseline at Week 12", "setting": "WHO class III/IV subgroup, 5 mg once daily", "value": "+51.8 m"},
      {"measurement": "placebo-adjusted BDI at Week 12", "setting": "combined 2.5 mg and 5 mg groups", "value": "−1.1"},
      {"measurement": "Clinical worsening event: Atrial septostomy", "setting": "[2]", "value": "0 (0.0) subjects (% of ITT population)"},
      {"measurement": "Clinical worsening event: Death", "setting": "[2]", "value": "2 (1.6) subjects (% of ITT population)"},
      {"measurement": "Clinical worsening event: Escape criteria", "setting": "[2]", "value": "3 (2.4) subjects (% of ITT population)"},
      {"measurement": "Clinical worsening event: Hospitalization for PAH", "setting": "[2]", "value": "5 (3.9) subjects (% of ITT population)"},
      {"measurement": "Clinical worsening event: Lung transplantation", "setting": "[2]", "value": "0 (0.0) subjects (% of ITT population)"},
      {"measurement": "Clinical worsening event: Study withdrawal due to addition of PAH treatment", "setting": "[2]", "value": "0 (0.0) subjects (% of ITT population)"},
      {"measurement": "Clinical worsening: Total subjects with ≧1 event", "setting": "[2]", "value": "6 (4.7) subjects (% of ITT population)"},
      {"measurement": "Change in 6MWD from baseline to Week 12, mean", "setting": "[3]", "value": "+35.7 meters"},
      {"measurement": "Week 12 6MWD, mean", "setting": "[3]", "value": 387.0, "unit": "meters"},
      {"measurement": "subjects who deteriorated by at least 1 WHO class", "setting": "combined 2.5 mg and 5 mg groups, Week 12", "value": 3.9, "unit": "%"},
      {"measurement": "Change in SF-36 Bodily pain, mean (SD)", "setting": "[4]", "value": "+1.40 (10.96)"},
      {"measurement": "Change in SF-36 General health, mean (SD)", "setting": "[4]", "value": "+4.40 (7.40)"},
      {"measurement": "Change in SF-36 Mental component summary, mean (SD)", "setting": "[4]", "value": "+5.17 (11.00)"},
      {"measurement": "Change in SF-36 Mental health, mean (SD)", "setting": "[4]", "value": "+4.50 (9.88)"},
      {"measurement": "Change in SF-36 Physical component summary, mean (SD)", "setting": "[4]", "value": "+3.38 (7.69)"},
      {"measurement": "Change in SF-36 Role-emotional, mean (SD)", "setting": "[4]", "value": "+5.63 (13.86)"},
      {"measurement": "Change in SF-36 Role-physical, mean (SD)", "setting": "[4]", "value": "+6.74 (11.07)"},
      {"measurement": "Change in SF-36 Social functioning, mean (SD)", "setting": "[4]", "value": "+4.70 (10.81)"},
      {"measurement": "Change in SF-36 Vitality, mean (SD)", "setting": "[4]", "value": "+4.64 (8.94)"},
      {"measurement": "Change in WHO functional class: +1 class", "setting": "[4]", "value": "4 (3.1) subjects (% of ITT population)"},
      {"measurement": "Change in WHO functional class: +2 classes", "setting": "[4]", "value": "1 (0.8) subjects (% of ITT population)"},
      {"measurement": "Change in WHO functional class: no change", "setting": "[4]", "value": "103 (81.1) subjects (% of ITT population)"},
      {"measurement": "Change in WHO functional class: −1 class", "setting": "[4]", "value": "18 (14.2) subjects (% of ITT population)"},
      {"measurement": "Change in WHO functional class: −2 classes", "setting": "[4]", "value": "1 (0.8) subjects (% of ITT population)"},
      {"measurement": "placebo-adjusted 6MWD change from baseline at Week 12", "setting": "eastern European subgroup, 2.5 mg once daily", "value": "+66.1 m"},
      {"measurement": "placebo-adjusted 6MWD change from baseline at Week 12", "setting": "eastern European subgroup, 5 mg once daily", "value": "+88.0 m"},
      {"measurement": "placebo-adjusted 6MWD change from baseline at Week 12", "setting": "female subjects, 2.5 mg once daily", "value": "+42.5 m"},
      {"measurement": "placebo-adjusted 6MWD change from baseline at Week 12", "setting": "female subjects, 5 mg once daily", "value": "+75.7 m"},
      {"measurement": "placebo-adjusted 6MWD change from baseline at Week 12", "setting": "idiopathic PAH subgroup, 2.5 mg once daily", "value": "+56.3 m"},
      {"measurement": "placebo-adjusted 6MWD change from baseline at Week 12", "setting": "idiopathic PAH subgroup, 5 mg once daily", "value": "+75.7 m"},
      {"measurement": "placebo-adjusted 6MWD change from baseline at Week 12", "setting": "male subjects, 2.5 mg once daily", "value": "+6.8 m"},
      {"measurement": "placebo-adjusted 6MWD change from baseline at Week 12", "setting": "male subjects, 5 mg once daily", "value": "+2.7 m"},
      {"measurement": "placebo-adjusted 6MWD change from baseline at Week 12", "setting": "non-idiopathic PAH subgroup, 2.5 mg once daily", "value": "−12.6", "unit": "m"},
      {"measurement": "placebo-adjusted 6MWD change from baseline at Week 12", "setting": "non-idiopathic PAH subgroup, 5 mg once daily", "value": "+29.5 m"},
      {"measurement": "reduction in the probability of clinical worsening (hazard ratio) compared to placebo", "setting": "subjects receiving ambrisentan (combined group), 12 weeks", "value": 80, "unit": "%"},
      {"measurement": "subjects hospitalized for PAH", "setting": "subjects receiving ambrisentan (combined), 12 weeks", "value": 3.9, "unit": "%"},
      {"measurement": "placebo-adjusted 6MWD change from baseline at Week 12", "setting": "western European/Israel subgroup, 2.5 mg once daily", "value": "+3.0 m"},
      {"measurement": "placebo-adjusted 6MWD change from baseline at Week 12", "setting": "western European/Israel subgroup, 5 mg once daily", "value": "+39.4 m"}
    ]}
  ]
}
